Experiments:
Assay type in all cases: functional
Parameters in all cases: scale not given: the % may be the effect or the level left
[1] = system: Rattus norvegicus; test: Hypolipidemic activity in high fat diet fed Rattus norvegicus Sprague-Dawley (rat) type-2 diabetes model assessed as reduction in streptozotocin-induced cholesterol level at 10 mg/kg/day, po for 14 days measured after treatment
[2] = system: Rattus norvegicus; test: Hypoglycemic activity in high fat diet fed Rattus norvegicus Sprague-Dawley (rat) type-2 diabetes model assessed as reduction in streptozotocin-induced blood glucose level at 10 mg/kg/day, po for 14 days measured after treatment
[3] = system: Rattus norvegicus; test: Hypolipidemic activity in high fat diet fed Rattus norvegicus Sprague-Dawley (rat) type-2 diabetes model assessed as reduction in streptozotocin-induced triglyceride level at 10 mg/kg/day, po for 14 days measured after treatment
[4] = system: Rattus norvegicus; test: Hypolipidemic activity in high fat diet fed Rattus norvegicus Sprague-Dawley (rat) type-2 diabetes model assessed as reduction in streptozotocin-induced triglyceride level at 20 mg/kg/day, po for 14 days measured after treatment
[5] = system: Rattus norvegicus; test: Hypoglycemic activity in high fat diet fed Rattus norvegicus Sprague-Dawley (rat) type-2 diabetes model assessed as reduction in streptozotocin-induced blood glucose level at 20 mg/kg/day, po for 14 days measured after treatment
[6] = system: Rattus norvegicus; test: Hypolipidemic activity in high fat diet fed Rattus norvegicus Sprague-Dawley (rat) type-2 diabetes model assessed as reduction in streptozotocin-induced cholesterol level at 20 mg/kg/day, po for 14 days measured after treatment

| SMILES | Activity [1] | Activity [2] | Activity [3] | Activity [4] | Activity [5] | Activity [6] |
| --- | --- | --- | --- | --- | --- | --- |
| CCc1ccc(CCOc2ccc(CC3SC(=O)NC3=O)cc2)nc1.Cl (centres undefined) [PIOGLITAZONE HYDROCHLORIDE] | 86.83% | 51.57% | 78.38% | – | – | – |
| O=C(COc1ccc(/C=C2\SC(=O)NC2=O)cc1)Nc1ncc([N+](=O)[O-])s1 | – | – | – | 78.11% | 56.08% | 92.46% |
| NC(=O)c1cc(C(=O)COc2ccc(/C=C3\SC(=O)NC3=O)cc2)ccc1O | – | – | – | 74.18% | 64.43% | 89.7% |
